Assay results taken from the NIST ThermoML archive (doi:10.1021/acs.jced.7b00613).
Numbers after ± are expanded uncertainties.

Tests used:
[1] = Liquid; for mass density: 293.15 K, 101.33 kPa, Vibrating tube method; for vapor or sublimation pressure: 278.15 K, Closed cell (Static) method
[2] = refractive index (Na D-line) (dimensionless); conditions: 293.15 K; 101.33 kPa; Liquid; Standard Abbe refractometry

SMILES | mass density [1] | refractive index [2] | vapor or sublimation pressure [1]
CCCCCC [hexane] | 660 ± 1 kg/m3 | 1.375 ± 0.001 | 
CCCCCCCC [octane] | 703 ± 1 kg/m3 | 1.396 ± 0.001 | 
CC [ethane] |  |  | 2699 ± 14 kPa
CC(C)CC(C)(C)C [2,2,4-trimethylpentane] | 692 ± 1 kg/m3 | 1.391 ± 0.001 | 
O=C=O [carbon dioxide] |  |  | 3962 ± 18 kPa
